Like-named read-outs stand apart in the source and are kept apart here. Peptide text beside a SMILES is read from it.
Assays:
[1] = Stability tests: solid stored in open vials at 40° C./75% RH, purity by HPLC; assay type: physicochemical; conditions: for Normalised purity: 40° C./75% RH, open vial
Description: The purity of solid samples was measured in area percentage by HPLC analysis using the method reported below:
Approximately 10 mg of material was placed in each vial (ea. 1.5 mL, open, clear glass vial).
Three vials were placed into a beaker which was then stored in a sealed desiccator containing a sodium chloride solution which keeps a constant 75% RH. The desiccator was placed into an oven at 40° C.
One vial at a time was taken out after 7 days, 14 days and 1 month and analysed.
Ovens were temperature monitored using calibrated thermometers with min and max temperatures recorded throughout the stability study.

[2] = 40° C./75% RH, according to U.S. Pat. No. 8,222,201 (WO 2010/059733), cited from earlier work

Structure (SMILES)	Normalised purity ([1]; Day 7) [%]	Normalised purity ([1]; Day 14) [%]	Normalised purity ([1]; Month 1) [%]	Susceptibility to degradation (chemical stability) compared with form alpha ([1]; open atmosphere of 75% RH and 40° C.)	Normalised purity ([2]; Day 7) [%]	Normalised purity ([2]; Day 14) [%]	Normalised purity ([2]; Month 1) [%]
C[C@@H]1NC(=O)[C@@H]2CCCN2C(=O)[C@H](CC(N)=O)NC(=O)[C@@H]2CSSC[C@H](N)C(=O)N[C@H]3CSSC[C@H](NC1=O)C(=O)N[C@@H]([C@@H](C)O)C(=O)NCC(=O)N[C@H](C(=O)N[C@@H](Cc1ccc(O)cc1)C(=O)O)CSSC[C@H](NC(=O)[C@H](Cc1ccc(O)cc1)NC(=O)[C@H](CCC(=O)O)NC3=O)C(=O)N2 [Form II, Linaclotide] (HELM PEPTIDE1{C.C.E.Y.C.C.N.P.A.C.T.G.C.Y}$PEPTIDE1,PEPTIDE1,1:R3-6:R3|PEPTIDE1,PEPTIDE1,2:R3-10:R3|PEPTIDE1,PEPTIDE1,5:R3-13:R3$$$V2.0)	100	100	98.9	less susceptible to degradation than form alpha	–	–	–
C[C@@H]1NC(=O)[C@@H]2CCCN2C(=O)[C@H](CC(N)=O)NC(=O)[C@@H]2CSSC[C@H](N)C(=O)N[C@H]3CSSC[C@H](NC1=O)C(=O)N[C@@H]([C@@H](C)O)C(=O)NCC(=O)N[C@H](C(=O)N[C@@H](Cc1ccc(O)cc1)C(=O)O)CSSC[C@H](NC(=O)[C@H](Cc1ccc(O)cc1)NC(=O)[C@H](CCC(=O)O)NC3=O)C(=O)N2 [Form Alpha, Linaclotide] (HELM PEPTIDE1{C.C.E.Y.C.C.N.P.A.C.T.G.C.Y}$PEPTIDE1,PEPTIDE1,1:R3-6:R3|PEPTIDE1,PEPTIDE1,2:R3-10:R3|PEPTIDE1,PEPTIDE1,5:R3-13:R3$$$V2.0)	–	–	–	–	100	94.8	91.9

— US20150361139A1, “CRYSTALLINE FORM OF LINACLOTIDE” (SANDOZ AG, priority 2013, published 2015)
